In assay [1] the test system is cellular pERK in NCI-H1975 cells (EGFR/L858R-T790M). The experiment in a line: pERK Potency Assay. Type of assay: cell-based. As to conditions: Homo sapiens, 1 hour incubation, Western blot, read-out: IC50 value, cellular pERK level. From the text:
The purpose of this assay is to measure the ability of test compounds to inhibit SOS1 function in cells. SOS1 activates RAS proteins by catalyzing the conversion of RAS-GDP to RAS-GTP in response to receptor tyrosine kinase activation. Activation of RAS induces a sequence of cellular signaling events that results in increased phosphorylation of ERK at Threonine 202 and Tyrosine 204 (pERK). The procedure described below measured the level of cellular pERK in response to test compounds in NCI-H1975 cells (EGFR/L858R-T790M).
NCI-H1975 cells were grown and maintained using media and procedures recommended by the ATCC. On the day prior to compound addition, cells were plated in 24-well cell culture plates (0.9 ml/well) and grown overnight in a 37° C., 5% CO2 incubator. Test compounds were prepared with 3-fold serial dilutions in DMSO, with a top concentration of 10 mM. On the day of the assay, 100 uL of each test compound diluted at 1:100 in media was added to each well of cell culture plate with final concentrations of the compound spanning 0.5 nM to 10 uM. After the compound was added, the cells were incubated for 1 hour at 37° C., 5% CO2. Following incubation, culture medium was removed, and the cells were washed once with phosphate buffered saline and lysed with lysis buffer (20 mM Tris-HCl, pH 7.5, 150 mM NaCl, 1 mM EDTA, 1 mM EGTA, 0.8% NP-40 plus 2× protease and phosphatase inhibitors). Cellular pERK level was determined using the Western blot analysis and quantified with Liqor software. Signal from Western blot was plotted and IC50 values were determined by fitting a 4-parameter sigmoidal concentration response model.
For orientation: Immunoblotting shows a protein as a band on a membrane.

The target of assay [2] is T1, protein-protein interaction between SOS1 and KRAS-G12D (Homo sapiens, UniProt Q07889).
T1 construct: The purified GST-SOS1 catalytic domain (residues 564-1049) was first diluted in assay buffer; made in house; host or cells: E. coli BL21 (DE3) for SOS1; E. coli BL21 carrying a BirA plasmid for KRAS-G12D
T1 sequence (Q07889 564-1049): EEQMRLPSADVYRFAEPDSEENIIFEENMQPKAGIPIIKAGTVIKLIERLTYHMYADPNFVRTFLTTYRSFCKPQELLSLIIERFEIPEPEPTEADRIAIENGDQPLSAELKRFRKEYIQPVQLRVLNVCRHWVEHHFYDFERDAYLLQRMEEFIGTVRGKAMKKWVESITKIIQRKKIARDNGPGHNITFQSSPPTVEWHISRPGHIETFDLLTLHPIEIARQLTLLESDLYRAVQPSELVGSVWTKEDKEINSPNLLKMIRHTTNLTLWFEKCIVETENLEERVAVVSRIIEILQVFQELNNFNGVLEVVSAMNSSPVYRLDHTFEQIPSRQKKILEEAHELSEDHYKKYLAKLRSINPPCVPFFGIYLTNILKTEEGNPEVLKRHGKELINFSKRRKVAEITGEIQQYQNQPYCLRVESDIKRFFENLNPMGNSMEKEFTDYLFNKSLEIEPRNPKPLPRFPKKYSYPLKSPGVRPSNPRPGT
The experiment in a line: HTRF Based Protein-Protein Interaction Assay. Type of assay: binding. From the text: A KRAS-G12D and SOS1 binding/interaction assay was designed to measure the interaction between KRAS-G12D and SOS1 proteins. Utilizing HTRF (Homogeneous Time-Resolved Fluorescence) technology, the assay enabled simple and rapid characterization of compound and protein interaction in a high throughput format. This assay was used to examine potency of the compounds in inhibiting the protein-protein interaction between SOS1 and KRAS-G12D. […] Low IC50 values are indicative of high potency of the SOS1 inhibitor compound to disrupt SOS1 and Kras-G12D interaction.
Protein Expression and Purification. The corresponding gene sequence to human SOS1 (residues 564-1049, UniProt ID: Q07889; SEQ ID NO: 2) was synthesized and fused in frame with GST expression vector. After the desired sequence was confirmed, plasmid containing the sequence was transformed into the E. coli strain BL21 (DE3). Bacteria were growing at 37° C. in LB media containing 50 μg/ml Kanamycin to give OD600 of 0.6-0.8. Then 0.2 mM IPTG was added to induce protein expression for 16 hours at 17° C. Bacteria were harvested by centrifugation and stored at −80° C. Bacteria pellets were resuspended in lysis buffer (25 mM Tris-HCl, 500 mM NaCl, 2 mM DTT, 2.3% sucrose, 0.3% dextran-10, 1 mM PMSF, pH 7.5) and lysed using high-pressure homogenizer. The lysate was cleared by centrifugation for 30 minutes (12000 rpm at 4° C.). The supernatant containing GST-SOS1 fragment was purified sequentially through Glutathione column and gel filtration (Hiload 16/600 Superdex […] column, Cytiva). The purified GST-SOS1 fragment was confirmed by SDS-PAGE and stored in 25 mM Tris-HCl, 100 mM NaCl, 1 mM DTT, 2.3% sucrose, 0.3% dextran-10, pH 7.5 at −80° C.
Kras-G12D Protein Purification. The sequence corresponding to human KRAS-G12D (residues 1-169, UniProt P01116-2; SEQ ID NO: 1) was synthesized and fused in frame with His-AVI-TEV vector. The plasmid was transformed into the E. coli strain BL21 (containing a plasmid that can generate BirA enzyme). Bacteria were growing at 37° C. in TB media containing 100 μg/ml ampicillin and 50 μg/ml Kanamycin to give OD600 of 0.6-0.8. The 0.5 mM IPTG and 50 mg/l biotin were added to induce protein expression for 16 hours at 25° C. Bacteria were harvested by centrifugation and stored at −80° C. Bacteria pellets were re-suspended in lysis buffer (20 mM Tris-HCl, 500 mM NaCl, 5 mM MgCl2, 2 mM […], 5% glycerol, pH 8.0) and lysed using high-pressure homogenizer. The lysate was cleared by centrifugation for 30 minutes (12000 rpm at 4° C.). The supernatant containing HIS-AVI-TEV-KRAS-G12D fragment was purified sequentially through Ni-NTA column (SMART), Streptactin column (SMART), and gel filtration (Hiload 16/600 Superdex 75 pg, GE). The purified HIS-AVI-TEV-KRAS-G12D fragment was confirmed by SDS-PAGE and stored in 50 mM HEPES-NaOH, 100 mM NaCl, 1 mM DTT, 5 mM MgCl2, pH 7.5 at −80° C.
Protein-Protein Interaction Assay. An assay buffer containing 50 mM HEPES, pH 7.5, 50 mM NaCl, 0.01% Brij-35, 1 mM TCEP, 0.1% BSA was prepared, and concentration series of test compounds were generated spanning from 0.5 nM to 10 μM over 10 3-fold serial dilutions in a 384-well assay plate at a volume of 20 pL. The purified GST-SOS1 catalytic domain (residues 564-1049) was first diluted in assay buffer and 5 μl of SOS1 (final concentration 2.5 nM in assay mixture) was directly dispensed into compound plates. After a spin down at 1000 RPM for 30 seconds, the SOS1/compound mixture was incubated at 25° C. for 15 minutes to allow the reaction between SOS1 and the compound. A KRAS-G12D mixture was prepared by incubation of avi-tagged Kras-G12D (residue 1-169) and GDP in assay buffer containing 10 mM MgCl2 at room temperature for 10 minutes. A KRAS-G12D and GDP mixture (5 μL) was added to the assay plate (final KRAS-G12D was 100 nM and GDP was 10 uM). The plate was centrifuged at 1000 rpm for 30 sec and incubated at 25° C. for 60 minutes. […]
(In general: TR-FRET usually uses a lanthanide donor and a delayed reading to cut background.)

Where [3] appears, read: HTRF, GST-SOS1 2.5 nM, KRAS-G12D 100 nM, GDP 10 uM, read-out: IC50 value, inhibition of SOS1/KRAS-G12D protein-protein interaction.

Where two headings read alike, the source gives them in different places.

As for `[2H]C([2H])([2H])n1c(=O)c(C2(OC)CCN(C(C)=O)CC2)cc2c(N[C@H](C#C)c3cccc(C(F)(F)F)c3C)nc(C)nc21` [Compound 50, 6-(1-acetyl-4-methoxypiperidin-4-yl)-8-(^2H3)methyl-2-methyl-4-{[(1R)-1-[2-methyl-3-(trifluoromethyl)phenyl]prop-2-yn-1-yl]amino}-7H,8H-pyrido[2,3-d]pyrimidin-7-one], the values for the IC50 in assay [1] and in assay [2] (setting [3]) were under 100 nM and 100 to 200 nM, respectively.
As to `[2H]C([2H])([2H])n1c(=O)c(C2(F)CCN(C(C)=O)CC2)cc2c(N[C@H](C#C)c3cccc(C(F)(F)F)c3C)nc(C)nc21` [Compound 53], the IC50 in assay [1] is under 100 nM; in assay [2] (setting [3]), 100 to 200 nM.
As for `C#C[C@@H](Nc1nc(C)nc2cc(=O)n(C3(C(F)F)CC3)cc12)c1cccc(C(F)F)c1C` [Compound 1, (R)-4-((1-(3-(difluoromethyl)-2-methylphenyl)prop-2-yn-1-yl)amino)-6-(1-(difluoromethyl)cyclopropyl)-2-methylpyrido[4,3-d]pyrimidin-7(6H)-one], the values for the IC50 in assay [1] and in assay [2] (setting [3]) were 100 to 500 nM and under 100 nM, respectively.
`C#C[C@@H](Nc1ncnc2c1cc(C1(F)CCN(C(C)=O)C1)c(=O)n2C)c1cccc(C(F)F)c1F` (stereo partly drawn) [Compound 45, 6-(1-acetyl-3-fluoropyrrolidin-3-yl)-4-{[(1R)-1-[3-(difluoromethyl)-2-fluorophenyl]prop-2-yn-1-yl]amino}-8-methyl-7H,8H-pyrido[2,3-d]pyrimidin-7-one]: the values for the IC50 in assay [1] and in assay [2] (setting [3]) were under 100 nM and 100 to 200 nM, respectively.
In the case of `[2H]C([2H])([2H])n1c(=O)c(C2(O)CCN(C(C)=O)CC2)cc2c(N[C@H](C#C)c3cccc(C(F)(F)F)c3C)nc(C)nc21` [Compound 51, 6-(1-acetyl-4-hydroxypiperidin-4-yl)-8-(^2H3)methyl-2-methyl-4-{[(1R)-1-[2-methyl-3-(trifluoromethyl)phenyl]prop-2-yn-1-yl]amino}-7H,8H-pyrido[2,3-d]pyrimidin-7-one], the values for the IC50 in assay [1] and in assay [2] (setting [3]) were under 100 nM and 100 to 200 nM, respectively.
Take `C#C[C@@H](Nc1ncnc2c1cc(C1(NC(C)=O)CC3CCC(C1)N3C(C)=O)c(=O)n2C)c1cccc(C(F)F)c1F` (some centres unmarked) [Compound 64]: the IC50 in assay [1] was in the range of 100 to 500 nM.
As to `C#C[C@@H](Nc1ncnc2c1cc(C1=CC3CCC(C1)O3)c(=O)n2C)c1cccc(C(F)F)c1F` (some centres unmarked) [Compound 62], the IC50 in assay [1] is 100 to 500 nM.
On to `C#C[C@@H](Nc1ncnc2c1cc(C1=CC3CCC(C1)N3C(C)=O)c(=O)n2C)c1cccc(C(F)F)c1F` (some centres unmarked) [Compound 65], for which the IC50 in assay [1] and in assay [2] was under 100 nM in each case.
Consider `C#C[C@@H](Nc1ncnc2c1cc(C1(NC(C)=O)CC3CCC(C1)O3)c(=O)n2C)c1cccc(C(F)F)c1F` (stereo partly drawn) [Compound 61, N-(3(4-(((R)-1-3-(difluoromethyl)-2-fluorophenyl)prop-2-yn-1-yl)amino-8-methyl-7-oxo-7,8-dihydorpyrido[2,3-d]pyrimidin-6-yl)-8-oxabicyclo[3.2.1]octan-3-yl)acetamide], for which, in assay [1], the IC50 was 100 to 500 nM.
With `C#C[C@@H](Nc1ncnc2c1cc(C1(N)CCOCC1)c(=O)n2C)c1cccc(C(F)(F)F)c1C` [Compound 60], the IC50 in assay [1] was under 100 nM.
On to `[2H]C([2H])([2H])n1c(=O)c(C2=CCN(C(C)=O)CC2)cc2c(N[C@H](C#C)c3cccc(C(F)(F)F)c3C)nc(C)nc21` [Compound 52, 6-(1-acetyl-1,2,3,6-tetrahydropyridin-4-yl)-8-(^2H3)methyl-2-methyl-4-{[(1R)-1-[2-methyl-3-(trifluoromethyl)phenyl]prop-2-yn-1-yl]amino}-7H,8H-pyrido[2,3-d]pyrimidin-7-one], for which, in assay [1], the IC50 is 100 to 500 nM.
In the case of `C#C[C@@H](Nc1nc(C)nc2cc(=O)n(C3(C(F)F)CC3)cc12)c1cccc(C(F)F)c1F` [Compound 24, (R)-4-((1-(3-(difluoromethyl)-2-fluorophenyl)prop-2-yn-1-yl)amino)-6-(1-(difluoromethyl)cyclopropyl)-2-methylpyrido[4,3-d]pyrimidin-7(6H)-one], the IC50 in assay [1] is 100 to 500 nM; in assay [2] (setting [3]) it was under 100 nM.
As for `C#C[C@@H](Nc1ncnc2c1cc(C1(O)CC3CCC(C1)N3C(C)=O)c(=O)n2C)c1cccc(C(F)F)c1F` (some centres unmarked) [Compound 63], the IC50 in assay [1] fell in the range of 100 to 500 nM.
